Where two headings read alike, the source gives them in different places.
How the values were obtained:
Xcc Xcc17 = type: cell-based, Xanthomonas campestris pv. campestris; settings: rich medium, HPLC-purified peptides, peptide 0, 2, 10, 20 μg/ml, 24 h, OD600; lowest concentration inhibiting 50% of growth
Xoo Xoo28 [1] = type: cell-based, Xanthomonas oryzae pv. oryzae; settings: rich medium, HPLC-purified peptides, peptide 0, 2, 10, 20 μg/ml, 24 h, OD600; lowest concentration inhibiting 50% of growth
Atu C58C1 = type: cell-based, Agrobacterium tumefaciens; settings: rich medium, HPLC-purified peptides, peptide 0, 2, 10, 20 μg/ml, 24 h, OD600; lowest concentration inhibiting 50% of growth
[2] = Circular dichroism, secondary structure deconvolution; type: physicochemical; settings: CD, structural deconvolution; for α-helix content: dissolved in water
Protocol: The peptides were dissolved in water to make a stock solution and then diluted in the solution that contained different concentrations of trifluoroethanol (TFE) to the desired final TFE concentration. The circular dichroism (CD) spectra between 190 and 250nm were recorded on a J-815 CD spectrometer (JASCO, Japan). The bandwidth was 2nm, and the step resolution was 0.05nm. Each sample was scanned twice, and the average of the two measurements was smoothed using the Savitzky-Golay method to get the final CD spectrum. The CD spectra were deconvoluted using the CD Multivariate SSE software version 2.0.1 (JASCO, Japan).

Eco DH5α [3] = test system: Eco DH5α
Xev Xvt28 [4] = test system: Xev Xvt28
[5] = test system: Ralstonia solanacearum (Rs); type: cell-based; settings: at the highest peptide concentration (32μg/ml) tested; data not shown; before the tests in minimal media
Eco = type: cell-based, Escherichia coli
Rs = type: cell-based, Ralstonia solanacearum; settings: crude peptide, 5 μl of 64 μg/ml in 20 μl, bacteria OD600=0.4 in water, 2 h, confocal microscopy
[6] = test system: Pectobacterium carotovorum subsp. carotovorum (Pcc); assay: Plant disease response, Pcc infection of tomato L390 leaves; type: in vivo, Solanum lycopersicum; settings: for size of disease lesions caused by Pcc, tomato: crude peptide 16 μg/ml mixed with Pcc, detached wounded tomato L390 leaves, 16–28 h post-inoculation, vs water
[7] = test system: Pectobacterium carotovorum subsp. carotovorum (Pcc); assay: Plant disease response, Pcc infection of Arabidopsis Col0 leaves; type: in vivo, Arabidopsis thaliana; settings: crude peptide 16 μg/ml mixed with Pcc, wounded leaves of Arabidopsis Col0, 16–28 h post-inoculation, vs water
Botrytis cinerea (Bc) [8] = assay: Plant disease response, Bc infection of tomato L390 leaves; type: in vivo, Solanum lycopersicum; settings: crude peptide 16 μg/ml mixed with Bc spores (10^4 spores/ml), 47–70 h post-inoculation, vs water
Botrytis cinerea (Bc) [9] = assay: Plant disease response, Bc infection of Arabidopsis Col0 leaves; type: in vivo, Arabidopsis thaliana; settings: for development of the lesion caused by Bc, Arabidopsis: crude peptide 16 μg/ml mixed with Bc spores (10^5 spores/ml), Arabidopsis Col0 leaves, 47–70 h post-inoculation, vs water
Eco DH5α [10] = settings: 48 h
Xev Xvt28 [11] = settings: 48 h
Xoo Xoo28 [12] = settings: Table 4, rich medium, up to 32 μg/ml; for MIC: 48 h, no visible growth; for MBC: spotted on rich agar 48 h, no colony
Pcc = settings: up to 32 μg/ml
Pst DC3000 = settings: Table 4, rich medium, up to 32 μg/ml; for MIC: 48 h, no visible growth; for MBC: spotted on rich agar 48 h, no colony
Pss B728a = settings: Table 4, rich medium, up to 32 μg/ml; for MIC: 48 h, no visible growth; for MBC: spotted on rich agar 48 h, no colony
Ech = settings: up to 32 μg/ml
Rs Pss4 = settings: Table 5, minimal medium, crude peptides, up to 32 μg/ml; for MIC: 96 h; for MBC/MFC: spotted on rich agar 48 h
Rs Pss190 = settings: Table 5, minimal medium, crude peptides, up to 32 μg/ml; for MIC: 96 h; for MBC/MFC: spotted on rich agar 48 h
Bc = settings: for MIC / MBC/MFC: Table 5, minimal (CD) medium, crude peptides, up to 32 μg/ml; for MIC: spores, 96 h; for MBC/MFC: spotted on PD plate 24~72 h; for antimicrobial activity: at the highest peptide concentration (32μg/ml) tested, data not shown, before the tests in minimal media
Cgl FST02 = settings: for MIC / MBC/MFC: Table 5, minimal (CD) medium, crude peptides, up to 32 μg/ml; for MIC: spores, 96 h; for MBC/MFC: spotted on PD plate 24~72 h; for antimicrobial activity: at the highest peptide concentration (32μg/ml) tested, data not shown, before the tests in minimal media
[13] = Table 4, rich medium, 48 h, no visible growth
[14] = Table 5, minimal medium, crude peptides, 96 h
[15] = Table 5, minimal medium, crude peptides, spotted on rich agar 48 h
[16] = Table 7, rich media, spotted on rich agar 48 h

Ac-WKLLKLLLKLLKLLLKLL-NH2 [pepA]
IC50 (Xcc Xcc17): – (“–” indicates that no antimicrobial activity was detected in rich media at the highest peptide concentration (20μg/ml) that was tested in this study.) | IC50 (Xoo Xoo28 [1]): – (“–” indicates that no antimicrobial activity was detected in rich media at the highest peptide concentration (20μg/ml) that was tested in this study.) | IC50 (Atu C58C1): – (“–” indicates that no antimicrobial activity was detected in rich media at the highest peptide concentration (20μg/ml) that was tested in this study.) | α-helix content [2]: over 90% | IC50 (Eco DH5α [3]): – (key: “–” indicates that no antimicrobial activity was detected in rich media at the highest peptide concentration (20μg/ml) that was tested in this study.) | IC50 (Xev Xvt28 [4]): – (key: “–” indicates that no antimicrobial activity was detected in rich media at the highest peptide concentration (20μg/ml) that was tested in this study.)

Ac-WKLLKKLLKLLKKLLKLL-NH2 [pepB]
IC50 (Xcc Xcc17): – (“–” indicates that no antimicrobial activity was detected in rich media at the highest peptide concentration (20μg/ml) that was tested in this study.) | IC50 (Xoo Xoo28 [1]): – (“–” indicates that no antimicrobial activity was detected in rich media at the highest peptide concentration (20μg/ml) that was tested in this study.) | IC50 (Atu C58C1): – (“–” indicates that no antimicrobial activity was detected in rich media at the highest peptide concentration (20μg/ml) that was tested in this study.) | α-helix formation ([2]; 10% TFE): 90% | α-helix content [2]: about 25% | IC50 (Eco DH5α [3]): – (key: “–” indicates that no antimicrobial activity was detected in rich media at the highest peptide concentration (20μg/ml) that was tested in this study.) | IC50 (Xev Xvt28 [4]; 24 h): 20 µg/mL

Ac-WKKLKKLLKKL-NH2 [pepD3]
antimicrobial activity [5]: did not have detectable antimicrobial activity | membranolytic effect (SYTOX Green staining) (Eco): significant membranolytic effect | membranolytic effect (SYTOX Green staining) (Rs): significant membranolytic effect | size of disease lesions caused by Pcc, tomato [6]: did not detectably inhibit the diseases | size of disease lesions caused by Pcc, Arabidopsis [7]: did not detectably inhibit the diseases | development of the lesion caused by Bc, tomato (Botrytis cinerea (Bc) [8]): did not detectably inhibit the diseases | development of the lesion caused by Bc, Arabidopsis (Botrytis cinerea (Bc) [9]): did not detectably inhibit the diseases | MBC (Eco DH5α [10]): 16 µg/mL | MIC (Eco DH5α [10]): 8 µg/mL | MBC (Xev Xvt28 [11]): 4 µg/mL | MIC (Xev Xvt28 [11]): 4 µg/mL | MIC (Xoo Xoo28 [12]): 4 µg/mL | MBC (Xoo Xoo28 [12]): 4 µg/mL | MIC (Pcc; [13]): 8 µg/mL | MIC (Pcc; [14]): 8 µg/mL | MBC/MFC (Pcc; [15]): 16 µg/mL | MIC (Pst DC3000): 8 µg/mL | MBC (Pst DC3000): 16 µg/mL | MIC (Pss B728a): 8 µg/mL | MBC (Pss B728a): 16 µg/mL | MIC (Ech; [14]): 32 µg/mL | MIC (Rs Pss4): – (“–” indicates that no antimicrobial activity was detected in minimal media at the highest concentration (32μg/ml) of crude peptides that was tested in this study.) | MBC/MFC (Rs Pss4): – (“–” indicates that no antimicrobial activity was detected in minimal media at the highest concentration (32μg/ml) of crude peptides that was tested in this study.) | MIC (Rs Pss190): – (“–” indicates that no antimicrobial activity was detected in minimal media at the highest concentration (32μg/ml) of crude peptides that was tested in this study.) | MBC/MFC (Rs Pss190): – (“–” indicates that no antimicrobial activity was detected in minimal media at the highest concentration (32μg/ml) of crude peptides that was tested in this study.) | MIC (Bc): – (“–” indicates that no antimicrobial activity was detected in minimal media at the highest concentration (32μg/ml) of crude peptides that was tested in this study.) | MBC/MFC (Bc): – (“–” indicates that no antimicrobial activity was detected in minimal media at the highest concentration (32μg/ml) of crude peptides that was tested in this study.) | antimicrobial activity (Bc): did not have detectable antimicrobial activity | MIC (Cgl FST02): – (“–” indicates that no antimicrobial activity was detected in minimal media at the highest concentration (32μg/ml) of crude peptides that was tested in this study.) | MBC/MFC (Cgl FST02): – (“–” indicates that no antimicrobial activity was detected in minimal media at the highest concentration (32μg/ml) of crude peptides that was tested in this study.) | antimicrobial activity (Cgl FST02): did not have detectable antimicrobial activity

Ac-WKKLKKLLKKLKKL-NH2 [pepD2]
antimicrobial activity [5]: did not have detectable antimicrobial activity | membranolytic effect (SYTOX Green staining) (Eco): significant membranolytic effect | membranolytic effect (SYTOX Green staining) (Rs): significant membranolytic effect | Plant response to infection with Pcc, Tomato (class and significance; number of batches in parentheses) ([6]; crude peptide 16 µg/mL, lesion diameter 16–28 h post-inoculation, Student's t-test vs water-treated): ns(3) | size of disease lesions caused by Pcc, tomato [6]: did not detectably inhibit the diseases | size of disease lesions caused by Pcc, Arabidopsis [7]: did not detectably inhibit the diseases | development of the lesion caused by Bc, tomato (Botrytis cinerea (Bc) [8]): did not detectably inhibit the diseases | Plant response to infection with Bc, Arabidopsis (class and significance; number of batches in parentheses) (Botrytis cinerea (Bc) [9]; crude peptide 16 µg/mL, lesion diameter 47–70 h post-inoculation, Student's t-test vs water-treated): ns(2 ) | development of the lesion caused by Bc, Arabidopsis (Botrytis cinerea (Bc) [9]): did not detectably inhibit the diseases | MBC (Eco DH5α [10]): 8 µg/mL | MBC (Xev Xvt28 [11]): 4 µg/mL | MIC (Xev Xvt28 [11]): 4 µg/mL | MIC (Xoo Xoo28 [12]): 4 µg/mL | MBC (Xoo Xoo28 [12]): 8 µg/mL | MIC (Pcc; [13]): 8 µg/mL | MIC (Pcc; [14]): 8 µg/mL | MBC/MFC (Pcc; [15]): 8 µg/mL | MIC (Pcc; Table 7, rich media, 48 h): 4 µg/mL | MBC (Pcc; [16]): 8 µg/mL | MIC (Pst DC3000): 4 µg/mL | MBC (Pst DC3000): 8 µg/mL | MIC (Pss B728a): 8 µg/mL | MBC (Pss B728a): 16 µg/mL | MIC (Ech; [14]): 16 µg/mL | MBC/MFC (Ech; [15]): 16 µg/mL | MIC (Ech; Table 7, rich media, 48 h): 32 µg/mL | MBC (Ech; [16]): 32 µg/mL | MIC (Rs Pss4): – (“–” indicates that no antimicrobial activity was detected in minimal media at the highest concentration (32μg/ml) of crude peptides that was tested in this study.) | MBC/MFC (Rs Pss4): – (“–” indicates that no antimicrobial activity was detected in minimal media at the highest concentration (32μg/ml) of crude peptides that was tested in this study.) | MIC (Rs Pss190): – (“–” indicates that no antimicrobial activity was detected in minimal media at the highest concentration (32μg/ml) of crude peptides that was tested in this study.) | MBC/MFC (Rs Pss190): – (“–” indicates that no antimicrobial activity was detected in minimal media at the highest concentration (32μg/ml) of crude peptides that was tested in this study.) | MIC (Bc): – (“–” indicates that no antimicrobial activity was detected in minimal media at the highest concentration (32μg/ml) of crude peptides that was tested in this study.) | MBC/MFC (Bc): – (“–” indicates that no antimicrobial activity was detected in minimal media at the highest concentration (32μg/ml) of crude peptides that was tested in this study.) | antimicrobial activity (Bc): did not have detectable antimicrobial activity | MIC (Cgl FST02): – (“–” indicates that no antimicrobial activity was detected in minimal media at the highest concentration (32μg/ml) of crude peptides that was tested in this study.) | MBC/MFC (Cgl FST02): – (“–” indicates that no antimicrobial activity was detected in minimal media at the highest concentration (32μg/ml) of crude peptides that was tested in this study.) | antimicrobial activity (Cgl FST02): did not have detectable antimicrobial activity

Reference: publication PMC8514817, “De Novo Design of Antimicrobial Peptides With a Special Charge Pattern and Their Application in Combating Plant Pathogens” (Frontiers in Plant Science, 2021)
